Measurements from EPA's ToxRefDB 2.

Legend:
[1] = tested on: dog; details: Subchronic oral toxicity in nonrodent, beagle, Capsule, dose end: 96 day, group: systemic
[2] = tested on: rat; details: Subchronic oral toxicity in rodents, other, Feed, dose end: 90 day, group: systemic
[3] = tested on: mouse; details: Carcinogenicity, cd1, Oral, Feed, dose end: 78 week, group: systemic
[4] = tested on: dog; details: Chronic toxicity, beagle, Oral, Capsule, dose end: 52 week, group: systemic
[5] = tested on: rat; details: Subchronic oral toxicity in rodents, other, Feed, dose end: 90 day, group: systemic; remark: listed apart in the source
[6] = tested on: mouse; details: Subchronic oral toxicity in rodents, cd1, Feed, dose end: 90 day, group: systemic
[7] = tested on: rat; details: Combined chronic toxicity/carcinogenicity, fischer, Oral, Feed, dose end: 2 year
[8] = tested on: rat; details: Multigenerational reproductive toxicity study, sprague dawley, Oral, Feed, dose end: 2 generation
[9] = tested on: rabbit; details: Prenatal developmental toxicity study, Dutch, Oral, Gavage/Intubation, dose end: 18 GD
[10] = tested on: rat; details: Combined chronic toxicity/carcinogenicity, fischer, Oral, Feed, dose end: 106 week
[11] = tested on: mouse; details: Combined chronic toxicity/carcinogenicity, cd1, Oral, Feed, dose end: 24 month
[12] = systemic / in life observation / body weight / body weight gain + systemic / in life observation / food consumption / food efficiency
[13] = systemic / in life observation / body weight / body weight gain + systemic / in life observation / food consumption / food efficiency + …
[14] = systemic / organ weight / spleen / relative to body weight
[15] = systemic / hematology / erythrocyte (rbc) count differential / erythrocyte (rbc) + systemic / hematology / hematocrit (hct) / hematocrit (…
[16] = systemic / pathology microscopic / liver / vacuolization
[17] = systemic / in life observation / clinical signs / abdominogenital staining + systemic / in life observation / clinical signs / urinary …
[18] = systemic / in life observation / clinical signs / abdominogenital staining + systemic / in life observation / water consumption / water …
[19] = systemic / pathology microscopic / liver / vacuolization + systemic / hematology / erythrocyte (rbc) count differential / erythrocyte (rbc…
[20] = group: cholinesterase, cholinesterase / cholinesterase / cholinesterase / brain cholinesterase (che) + cholinesterase / cholinesterase / cholinesterase / …
[21] = group: systemic, systemic / in life observation / body weight / body weight + systemic / in life observation / body weight / body weight gain + systemic / …
[22] = group: cholinesterase, cholinesterase / cholinesterase / cholinesterase / brain cholinesterase (che) + cholinesterase / cholinesterase / cholinesterase / plasma …
[23] = group: offspring, systemic / in life observation / body weight / offspring (pup) weight + systemic / pathology microscopic / kidney / dilatation
[24] = group: parental, systemic / pathology gross / lung / discolored + systemic / pathology microscopic / lung / hyperplasia + systemic / pathology microscopic / …
[25] = group: reproductive, reproductive / offspring survival early / birth index / birth index
[26] = group: cholinesterase, cholinesterase / cholinesterase / cholinesterase / erythrocyte cholinesterase (che) + cholinesterase / cholinesterase / cholinesterase / …
[27] = group: developmental, developmental / developmental malformation / bone / delayed ossification + systemic / in life observation / body weight / fetal weight
[28] = group: maternal, reproductive / reproductive performance / resorptions / resorptions + reproductive / reproductive performance / aborted / aborted + systemic…
[29] = group: cholinesterase, cholinesterase / cholinesterase / cholinesterase / plasma cholinesterase (che) + cholinesterase / cholinesterase / cholinesterase / brain …
[30] = group: systemic, systemic / hematology / hematocrit (hct) / hematocrit (hct) + systemic / hematology / mean corpuscular (cell) volume (mcv) / mean …
[31] = group: systemic, systemic / in life observation / clinical signs / urine staining - perineum
[32] = group: systemic, systemic / in life observation / clinical signs / vaginal discharge + systemic / in life observation / clinical signs / urine staining - …

Structure (SMILES): CCOC(=O)COc1cc(-n2ncc(C(F)(F)F)c(C)c2=O)c(F)cc1Cl [Flufenpyr-ethyl]
- LOAEL [1, 12]: 1000 mg/kg/day
- LEL [1, 13]: 100 mg/kg/day
- NEL [1, 13]: < 100 mg/kg/day
- NOAEL [1, 13]: 300 mg/kg/day
- LOAEL ([2]; systemic / in life observation / clinical signs / body surface staining + systemic / in life observation / clinical signs / urinary …): 414 mg/kg/day
- LEL [2, 14]: 39 mg/kg/day
- NEL [2, 14]: < 39 mg/kg/day
- NOAEL ([2]; systemic / organ weight / spleen / relative to body weight + systemic / in life observation / clinical signs / body surface staining + …): 134 mg/kg/day
- LOAEL [3, 15]: 402 mg/kg/day
- NOAEL [3, 15]: 39.9 mg/kg/day
- LEL [3, 16]: 397 mg/kg/day
- NEL [3, 16]: 43.5 mg/kg/day
- LOAEL ([4]; systemic / in life observation / body weight / body weight gain): 1000 mg/kg/day
- LEL [4, 12]: 200 mg/kg/day
- NEL [4, 12]: 50 mg/kg/day
- NOAEL [4, 12]: 200 mg/kg/day
- LOAEL [5, 17]: 595 mg/kg/day
- NOAEL [5, 17]: 55 mg/kg/day
- LEL [5, 18]: 55 mg/kg/day
- NEL [5, 18]: < 55 mg/kg/day
- LEL [6, 16]: 395 mg/kg/day
- LOAEL [6, 16]: 395 mg/kg/day
- NEL [6, 19]: 128 mg/kg/day
- NOAEL [6, 19]: 128 mg/kg/day

Structure (SMILES): COP(=O)(OC)C(O)C(Cl)(Cl)Cl (stereo unspecified) [Trichlorfon]
- LEL [7, 20]: 129 mg/kg/day
- LOAEL [7, 20]: 129 mg/kg/day
- NEL [7, 20]: < 129 mg/kg/day
- NOAEL [7, 20]: < 129 mg/kg/day
- LEL [7, 21]: 129 mg/kg/day
- LOAEL [7, 21]: 129 mg/kg/day
- NEL [7, 21]: < 129 mg/kg/day
- NOAEL [7, 21]: < 129 mg/kg/day
- LEL [8, 22]: 15 mg/kg/day
- LOAEL [8, 22]: 15 mg/kg/day
- NEL [8, 22]: < 15 mg/kg/day
- NOAEL [8, 22]: < 15 mg/kg/day
- LEL [8, 23]: 175 mg/kg/day
- LOAEL [8, 23]: 175 mg/kg/day
- NEL [8, 23]: 50 mg/kg/day
- NOAEL [8, 23]: 50 mg/kg/day
- LEL [8, 24]: 175 mg/kg/day
- LOAEL [8, 24]: > 175 mg/kg/day
- NEL [8, 24]: 50 mg/kg/day
- NOAEL [8, 24]: ≥ 175 mg/kg/day
- LOAEL [8, 25]: 175 mg/kg/day
- NEL [8, 25]: 50 mg/kg/day
- NOAEL [8, 25]: 50 mg/kg/day
- LEL ([8]; group: reproductive, reproductive / offspring survival early / birth index / birth index + reproductive / offspring survival early / litter size / litter size): 175 mg/kg/day
- LEL [9, 26]: 35 mg/kg/day
- LOAEL [9, 26]: 35 mg/kg/day
- NEL [9, 26]: 10 mg/kg/day
- NOAEL [9, 26]: 10 mg/kg/day
- LEL [9, 27]: 110 mg/kg/day
- LOAEL [9, 27]: 110 mg/kg/day
- NEL [9, 27]: 35 mg/kg/day
- NOAEL [9, 27]: 35 mg/kg/day
- LEL ([9]; group: maternal, reproductive / reproductive performance / aborted / aborted + systemic / in life observation / clinical signs / altered breathing rate + …): 35 mg/kg/day
- LOAEL ([9]; group: maternal, reproductive / reproductive performance / resorptions / resorptions): 110 mg/kg/day
- NEL [9, 28]: 10 mg/kg/day
- NOAEL [9, 28]: 35 mg/kg/day
- LEL [10, 29]: 15 mg/kg/day
- LOAEL [10, 29]: 15 mg/kg/day
- NEL [10, 29]: 5 mg/kg/day
- NOAEL [10, 29]: 5 mg/kg/day
- LEL [10, 30]: 15 mg/kg/day
- LOAEL [10, 30]: 15 mg/kg/day
- NEL [10, 30]: 5 mg/kg/day
- NOAEL [10, 30]: 5 mg/kg/day
- LEL [11, 20]: 45 mg/kg/day
- LOAEL [11, 20]: 45 mg/kg/day
- NEL [11, 20]: < 45 mg/kg/day
- NOAEL [11, 20]: < 45 mg/kg/day
- LEL [11, 31]: 45 mg/kg/day
- NEL [11, 31]: < 45 mg/kg/day
- LOAEL [11, 32]: > 405 mg/kg/day
- NOAEL [11, 32]: ≥ 405 mg/kg/day
